Laboratory results reported in patent US20260097091A1, “ADMINISTRATION OF GLUTATHIONE TRISULFIDE TO AMELIORATE PERIPHERAL NEUROPATHY” (The General Hospital Corporation, priority 2022, published 2026).

Columns and labels:
primary DRG neurons = primary DRG neurons exposed to paclitaxel: Sholl analysis and axonal mitochondria (NF200, MitoTracker); type: cell-based, mice; settings: 500 nM PTNSSS with 100 nM paclitaxel for one hour
Procedure: Primary DRG neurons were prepared from 8 to 10-week old mice as described previously. Briefly, lumber DRG (L1 to L6) were isolated from mice and centrifuged at 176×g (1000 rpm) for 3 minutes. After aspirating the solution, DRG were incubated with Dispase-II Solution (Sigma-Aldrich, Cat No. SCM133) and collagenase type II (Worthington, Cat No. LS004176) for 70 minutes and with 0.25% trypsin for 5 minutes. Subsequently triturated by frame polished glass pipet, neurons were seeded on a 12-well plate with 15 mm coverslip. Cells were incubated in Neurobasal A-medium with 2% B27 supplement (Gibco, Cat No. 10889038), 1% penicillin/streptomycin, 1% Glutamax (Gibco, Cat No. 35050061), and nerve growth factor (Sigma Aldrich, Cat No. N6009) for 24 hours. After 24 hours, they were exposed to 100 nM of paclitaxel with or without 500 nM of GSSSG or PTNSSS for one hour and 50 nM of MitoTracker (Invitrogen, Cat No. M22426) for 30 minutes. After fixing by 4% paraformaldehyde for 10 minutes at room temperature, cells were immersed in 0.2% Triton X-100 in PBS for 7 minutes and washed by PBS. They were incubated with anti-NF200 antibody (1:400, mouse, Sigma-Aldrich, Cat No. N0142) overnight at 4° C. and with the secondary antibody (1:1000, donkey anti-mouse, Abcam, Cat No. ab150105) for one hour at room temperature. After being covered with fluoroshield mounting medium with DAPI (Sigma-Aldrich, Cat No. F6057), 9-10 cells per group (3 mice per group) were imaged on confocal microscopy (ZEISS LSM 800, Carl Zeiss, Thornwood, NY) using a 63× oil immersion objectives lens with 1,024×1,024 pixels image size.
Effects of PTNSSS and GSSSG on axonal integrity were examined in cultured murine primary DRG neurons incubated with paclitaxel. […] Morphology of neurons, the number, length, and branching of neurites, was analyzed by Sholl analysis implemented in ImageJ [30]. Sholl analysis draws equally spaced circles from the soma and counts the number of intersections between neurites and circles to quantify neuronal morphology (FIG. 8C).

[1] = stability of PTN-SSS in solution; type: physicochemical; settings: pH 4.0-9.0 at room temperature
From the text: (§1) PTN-SSS was synthesized and provided by Kyowa Hakko Bio Co., Ltd. The purity of PTN-SSS is 96.3%, and PTN-SSS is highly water soluble (>50 g/L). PTN-SSS and PTN (Toronto Research Chemicals, Toronto, ON, Canada) were suspended in distilled water. PTN-SSS is stable in solution at pH 4.0-9.0 at room temperature for at least 4 days. In the PTN-SSS study, distilled water was used as the vehicle alone.

[2] = water solubility of PTN-SSS; type: physicochemical
From the text: as §1

[3] = tissue distribution of orally administered ^34S-labeled GSSSG by LC-MS/MS; type: in vivo, mice; settings: 2 hours after oral 50 mg/kg
Procedure: To determine the tissue distribution of orally-administered GSSSG, ^34S-labelled GSSSG was administered by gavage to each of four mice. ^34S-labelled GSSSG was synthesized and provided by Kyowa Hakko Bio CO., LTD. Two hours after a single dose of ^34S-GSSSG, DRG, lumber spinal cord, brain, liver, and plasma were obtained and snap frozen for later analysis.
We examined whether administrated GSSSG via oral gavage reaches peripheral nervous system using liquid chromatography with tandem mass spectrometry (LC-MS/MS). Fifty mg/kg of ^34S-labeled GSSSG (in which the middle sulfur, that is a sulfane sulfur, was replaced to ^34S; G-^32S-^34S-^32S-G) was orally administered to mice. Two hours after administration, plasma and tissue from liver, brain, lumbar spinal cord, and lumbar DRG (L1 to L6) were collected and immediately frozen at −80° C. Tissues were homogenized with 5 mM of β-(4-hydroxyphenyl)ethyl iodoacetamide (HPE-IAM) (Santa Cruz, Cat No. SC-473766) and incubated for 20 minutes at 37° C. to promote HPE-IAM reaction that stabilizes persulfide residues. Proteins were removed by centrifugation at 15,000 g for 10 minutes at 4° C., and total protein concentration was measured by BCA assay. The supernatant was diluted by 0.1% formic acid for LC-MS/MS analysis. The amount of ^34S-labeled GSSSG was quantified in selective reaction monitoring (SRM) with precursor ion (647.14 m/z), product ion (389.1 m/z), and HCD (21 v) and normalized by protein concentration. The ratio of ^34S-labeled reactive sulfur species to endogenous (^32S) reactive sulfur species (GSSH, CysSSH, and CysSSSCys) were also calculated from their peak area measured by Dionex UltiMate 3000 RS UPLC-Orbitrap Exploris 480 mass spectrometer (Thermo Scientific Scientific, Waltham, MA, USA). In brief, samples were subjected to the UPLC system with a Hypersil Gold C-18 (100×2.1 mm, 3.0 μm, Thermo Fisher Scientific) column and they were eluted by using a linear methanol gradient of the mobile phase (0-90%, 15 minutes) in the presence of 0.1% formic acid at a flow rate of 0.2 ml/minutes at 40 degrees. The raw data were obtained by Compound Discoverer software 3.3. Molecular weight of reactive sulfur species combined with HPE-IAM were reported in previous studies.

Compound | axonal length (Sholl analysis) (primary DRG neurons) | stable in solution [1] | water solubility [2] [mg/mL] | ratio of ^34S-labelled CysSSH to endogenous CysSSH ([3]; all 4 tissues) | ratio of ^34S-labelled CysSSSCys to endogenous CysSSSCys ([3]; all 4 tissues) | ratio of ^34S-labelled GSSH to endogenous GSSH ([3]; all 4 tissues (lumber DRG, lumber spinal cord, brain, liver)) | average concentration of ^34S-labelled GSSSG in brain ([3]; mice) [pmol/mg protein] | average concentration of ^34S-labelled GSSSG in liver ([3]; mice) [pmol/mg protein] | average concentration of ^34S-labelled GSSSG in lumber DRG ([3]; mice) [pmol/mg protein] | average concentration of ^34S-labelled GSSSG in lumber spinal cord ([3]; mice) [pmol/mg protein]
CC(C)(CO)[C@@H](O)C(=O)NCCC(=O)NCCSSSCCNC(=O)CCNC(=O)[C@H](O)C(C)(C)CO [PTN-SSS, pantethine trisulfide] | prevented the axonal shortening induced by paclitaxel | at least 4 days | > 50 |  |  |  |  |  |  | 
N[C@@H](CCC(=O)N[C@@H](CS[34S]SC[C@H](NC(=O)CC[C@H](N)C(=O)O)C(=O)NCC(=O)O)C(=O)NCC(=O)O)C(=O)O [^34S-labelled GSSSG] |  |  |  | more than 10 fold | more than 10 fold | more than 10 fold | 142 | 158 | 415 | 518
